Source: patent US9265744B2, “Fulvic acid and antibiotic combination for the inhibition or treatment of multi-drug resistant bacteria” (NATRACINE UK LIMITED, priority 2012, dated 2016)

Test system: Klebsiella pneumoniae (ATCC BAA2146 NDM-1+)
Assay: Neutropenic mouse thigh model of K. pneumoniae infection
Type: in vivo, mouse (CD1)
Conditions: IV 2X daily; for Group Ave. Log 10 cfu/g / Group Average (cfu/g), thigh tissue burden / Log reduction from vehicle: 24 h post infection; for No. Sterilised (5 or less colonies detected on neat plate): n = 12 thighs
Text: Mice used in this study were supplied by Charles River UK and were specific pathogen free. The strain of mouse used was CD1, which is a well characterized outbred strain. Mice were 16-18 g on receipt at Euprotec's facility and were allowed to acclimatize for 7 days (target weight at the start of the experiment 22-25 g).
Klebsiella pneumoniae (ATCC BAA2146 NDM-1^+ (blandm) was used throughout the study.
In this study, 6 mice were used in each treatment group. • b) Immunosuppression
Mice were rendered temporarily neutropenic by immunosuppression with cyclophosphamide at 150 mg/kg four days before infection and 100 mg/kg one day before infection by intraperitoneal injection. The immunosuppression regime leads to neutropenia starting 24 hours post administration which continues throughout the study. • c) Infection
Antibacterial treatment was initiated 2 hours post infection (Table 3) and was administered twice (exactly 12 hours apart). An aliquot of 4% CHD-FA stock solution as adjusted to pH 5 with 10 M sodium hydroxide solution then diluted either 1:2 or 1:8 with 0.9% saline to give a dosing solution of 2% (200 mg/kg) and 0.5% (50 mg/kg) CHD-FA respectively.
Colistin was diluted in 0.9% saline to give a dosing solution of 4 mg/ml (40 mg/kg). Meropenem was diluted in 0.9% saline to give a dosing solution of 3 mg/ml (30 mg/kg). The vehicle was 0.9% saline. Following reconstitution, the suspensions were vortexed to ensure complete dissolution.
CHD-FA was administered by gavage, whereas Colistin, Meropenem and the vehicle were administered IV at 10 ml/kg (requiring individual mice to be administered ˜0.25 ml/dose). • e) Endpoints
24 hours post infection, the clinical condition of all animals was assessed prior to them being humanely euthanized. Animal weight was determined before both thighs were removed and weighed individually. Individual thigh tissue samples were homogenized in ice cold sterile phosphate buffered saline. Thigh homogenates were then quantitatively cultured on to CLED agar and incubated at 37° C. for 24 hrs and colonies counted daily. • f) Statistical Analysis
Quantitative thigh tissue burden data for CHD-FA were analysed using the statistical test Kruskal Wallis test (corrected for multiple comparisons) and compared to Colistin, Meropenem and vehicle monotherapy, plus Colistin/CHD-FA and Meropenem/CHD-FA combinations.

## C[C@@H](O)[C@H]1C(=O)N2C(C(=O)O)=C(S[C@@H]3CN[C@H](C(=O)N(C)C)C3)[C@H](C)[C@H]12 [Meropenem]
Meropenem 30 mg/kg
  Group Ave. Log 10 cfu/g: 9.67 Log 10 cfu/g
  Group Average (cfu/g), thigh tissue burden: 4729505542 cfu/g
  Log reduction from vehicle: 1.74 log 10
  No. Sterilised (5 or less colonies detected on neat plate): 0

## Colistin
Colistin 40 mg/kg
  Group Ave. Log 10 cfu/g: 9.14 Log 10 cfu/g
  Group Average (cfu/g), thigh tissue burden: 1388363808 cfu/g
  Log reduction from vehicle: 2.27 log 10
  No. Sterilised (5 or less colonies detected on neat plate): 0
